# Like-named read-outs stand apart in the source and are kept apart here.
# Assays:
# Format in all cases: cell-based
# A. calcoaceticus = test system: A. calcoaceticus
# E. cloacae = E. cloacae strain ECL006
# E. coli = test system: E. coli
# E. faecalis = test system: E. faecalis
# H. influenzae = assay: Agarose dilution assay (MIC)
# K. pneumoniae = conditions: for MIC: K. pneumoniae strain KP001
# P. aeruginosa = test system: P. aeruginosa
# S. aureus = test system: S. aureus
# S. epidermidis = test system: S. epidermidis
# S. maltophilia = test system: S. maltophilia
# S. marcescens = test system: S. marcescens
# S. pneumoniae = assay: Agarose dilution assay (MIC)
# S. pyogenes = assay: Agarose dilution assay (MIC)
# bacterial isolates = assay: microbe, parasite or virus in culture; conditions: for Peptide MIC Alone: Piperacillin section; for FIC: peptide + Piperacillin
# [1] = test system: inherently resistant microorganisms; assay: microbe, parasite or virus in culture; conditions: S. aureus MRSA; for Peptide MIC Alone: Piperacillin section; for FIC: peptide + Piperacillin
# [2] = test system: microorganisms with acquired resistance; assay: microbe, parasite or virus in culture; conditions: for Peptide MIC Alone: Piperacillin section; for FIC: peptide + Piperacillin
# E. faecium = E. faecium strain EFM001
sequence,measurement,setting,value
ILRWVWWVWRRK [MBI 11F4CN],"MIC, Peptide","A. calcoaceticus; A. calcoaceticus AC002, unmodified parent peptide",4 mg/L
same,MIC,A. calcoaceticus; A. calcoaceticus strain AC003,16 mg/L
same,MIC,E. cloacae,16 mg/L
same,"MIC, Peptide","E. coli; E. coli ECO005, unmodified parent peptide",8 mg/L
same,MIC,E. coli; E. coli strain ECO001,8 mg/L
same,"MIC, Peptide","E. faecalis; E. faecalis EFS008, unmodified parent peptide",2 mg/L
same,MIC,E. faecalis; E. faecalis strain EFS004,8 mg/L
same,MIC,H. influenzae; H. influenzae strain HIN003,>128 mg/L
same,"MIC, Peptide","K. pneumoniae; K. pneumoniae KP001, unmodified parent peptide",4 mg/L
same,MIC,K. pneumoniae,8 mg/L
same,"MIC, Peptide","P. aeruginosa; P. aeruginosa PA004, unmodified parent peptide",32 mg/L
same,MIC,P. aeruginosa; P. aeruginosa strain PA020,32 mg/L
same,"MIC, Peptide","S. aureus; S. aureus SA014, unmodified parent peptide",2 mg/L
same,MIC,S. aureus; S. aureus strain SA007,1 mg/L
same,MIC,S. epidermidis; S. epidermidis strain SE010,2 mg/L
same,"MIC, Peptide","S. maltophilia; S. maltophilia SMA002, unmodified parent peptide",16 mg/L
same,MIC,S. maltophilia; S. maltophilia strain SMA006,16 mg/L
same,MIC,S. marcescens; S. marcescens strain SBSM1,>128 mg/L
same,MIC,S. pneumoniae; S. pneumoniae strain SBSPN3,>128 mg/L
same,MIC,S. pyogenes; S. pyogenes strain SPY005,32 mg/L
same,Peptide MIC + Piperacillin,bacterial isolates; E. cloacae 10,8 mg/L
same,Piperacillin MIC + Peptide,bacterial isolates; E. cloacae 10,4 mg/L
same,Peptide MIC Alone,bacterial isolates; E. cloacae 10,16 mg/L
same,Peptide MIC + Piperacillin,bacterial isolates; H. influenzae SB1,0.125 mg/L
same,Piperacillin MIC + Peptide,bacterial isolates; H. influenzae SB1,0.25 mg/L
same,Peptide MIC Alone,bacterial isolates; H. influenzae SB1,>128 mg/L
same,Peptide MIC + Piperacillin,bacterial isolates; P. aeruginosa 7,8 mg/L
same,Piperacillin MIC + Peptide,bacterial isolates; P. aeruginosa 7,64 mg/L
same,Peptide MIC Alone,bacterial isolates; P. aeruginosa 7,64 mg/L
same,Piperacillin MIC + Peptide,bacterial isolates; P. aeruginosa 23,64 mg/L
same,Peptide MIC Alone,bacterial isolates; P. aeruginosa 23,64 mg/L
same,Peptide MIC + Piperacillin,bacterial isolates; S. aureus 19 MRSA,2 mg/L
same,Piperacillin MIC + Peptide,bacterial isolates; S. aureus 19 MRSA,4 mg/L
same,Peptide MIC Alone,bacterial isolates; S. aureus 19 MRSA,4 mg/L
same,Peptide MIC + Piperacillin,bacterial isolates; S. maltophilia 2,0.5 mg/L
same,Piperacillin MIC + Peptide,bacterial isolates; S. maltophilia 2,32 mg/L
same,Peptide MIC Alone,bacterial isolates; S. maltophilia 2,16 mg/L
same,Peptide MIC + Piperacillin,bacterial isolates; S. marcescens 1,0.5 mg/L
same,Piperacillin MIC + Peptide,bacterial isolates; S. marcescens 1,64 mg/L
same,Peptide MIC Alone,bacterial isolates; S. marcescens 1,>128 mg/L
same,FIC,bacterial isolates; E. cloacae 10,0.52
same,FIC,bacterial isolates; H. influenzae SB1,0.50
same,FIC,bacterial isolates; P. aeruginosa 7,0.38
same,FIC,bacterial isolates; P. aeruginosa 23,0.31
same,FIC,bacterial isolates; S. aureus 19 MRSA,0.53
same,FIC,bacterial isolates; S. maltophilia 2,0.53
same,FIC,bacterial isolates; S. marcescens 1,0.25
same,Peptide MIC + Piperacillin,[1],2 mg/L
same,Peptide MIC Alone,[1],4 mg/L
same,FIC,[1],0.53
same,Peptide MIC + Piperacillin,[2]; E. cloacae 10,8 mg/L
same,Piperacillin MIC + Peptide,[2]; E. cloacae 10,4 mg/L
same,Peptide MIC Alone,[2]; E. cloacae 10,16 mg/L
same,Peptide MIC + Piperacillin,[2]; H. influenzae 1,64 mg/L
same,Piperacillin MIC + Peptide,[2]; H. influenzae 1,16 mg/L
same,Peptide MIC Alone,[2]; H. influenzae 1,>128 mg/L
same,Peptide MIC + Piperacillin,[2]; P. aeruginosa 7,8 mg/L
same,Piperacillin MIC + Peptide,[2]; P. aeruginosa 7,64 mg/L
same,Peptide MIC Alone,[2]; P. aeruginosa 7,64 mg/L
same,Peptide MIC + Piperacillin,[2]; P. aeruginosa 23,4 mg/L
same,Piperacillin MIC + Peptide,[2]; P. aeruginosa 23,64 mg/L
same,Peptide MIC Alone,[2]; P. aeruginosa 23,64 mg/L
same,Peptide MIC + Piperacillin,[2]; S. maltophilia 2,4 mg/L
same,Piperacillin MIC + Peptide,[2]; S. maltophilia 2,16 mg/L
same,Peptide MIC Alone,[2]; S. maltophilia 2,16 mg/L
same,Peptide MIC + Piperacillin,[2]; S. marcescens 1,4 mg/L
same,Piperacillin MIC + Peptide,[2]; S. marcescens 1,16 mg/L
same,Peptide MIC Alone,[2]; S. marcescens 1,>128 mg/L
same,FIC,[2]; E. cloacae 10,0.52
same,FIC,[2]; H. influenzae 1,0.75
same,FIC,[2]; P. aeruginosa 7,0.38
same,FIC,[2]; P. aeruginosa 23,0.31
same,FIC,[2]; S. maltophilia 2,0.50
same,FIC,[2]; S. marcescens 1,0.08
ILKKWPWWPWRR [MBI 11G7CN],MIC,A. calcoaceticus; A. calcoaceticus strain AC001,128 mg/L
same,MIC,E. cloacae,64 mg/L
same,MIC,E. coli; E. coli strain ECO005,8 mg/L
same,MIC,E. faecalis; E. faecalis strain EFS002,32 mg/L
same,MIC,E. faecium,8 mg/L
same,MIC,H. influenzae; H. influenzae strain HIN002,>128 mg/L
same,MIC,H. influenzae; H. influenzae strain SBHIN2,>128 mg/L
same,MIC,K. pneumoniae,16 mg/L
same,MIC,P. aeruginosa; P. aeruginosa strain PA006,>128 mg/L
same,MIC,S. aureus; S. aureus strain SA012,2 mg/L
same,MIC,S. epidermidis; S. epidermidis strain SE002,2 mg/L
same,MIC,S. maltophilia; S. maltophilia strain SMA001,32 mg/L
same,MIC,S. marcescens; S. marcescens strain SBSM1,>128 mg/L
same,MIC,S. marcescens; S. marcescens strain SMS003,>128 mg/L
same,MIC,S. pneumoniae; S. pneumoniae strain SBSPN2,>128 mg/L
same,MIC,S. pneumoniae; S. pneumoniae strain SPN044,>128 mg/L
same,MIC,S. pyogenes; S. pyogenes strain SPY006,16 mg/L
same,Peptide MIC + Piperacillin,bacterial isolates; A. calcoaceticus 3,16 mg/L
same,Piperacillin MIC + Peptide,bacterial isolates; A. calcoaceticus 3,32 mg/L
same,Peptide MIC Alone,bacterial isolates; A. calcoaceticus 3,64 mg/L
same,Peptide MIC + Piperacillin,bacterial isolates; H. influenzae SB1,4 mg/L
same,Piperacillin MIC + Peptide,bacterial isolates; H. influenzae SB1,0.25 mg/L
same,Peptide MIC Alone,bacterial isolates; H. influenzae SB1,>128 mg/L
same,Peptide MIC + Piperacillin,bacterial isolates; P. aeruginosa 7,64 mg/L
same,Piperacillin MIC + Peptide,bacterial isolates; P. aeruginosa 7,64 mg/L
same,Peptide MIC Alone,bacterial isolates; P. aeruginosa 7,>128 mg/L
same,Peptide MIC + Piperacillin,bacterial isolates; P. aeruginosa 23,1 mg/L
same,Piperacillin MIC + Peptide,bacterial isolates; P. aeruginosa 23,64 mg/L
same,Peptide MIC Alone,bacterial isolates; P. aeruginosa 23,>128 mg/L
same,Peptide MIC + Piperacillin,bacterial isolates; S. aureus 18 MRSA,8 mg/L
same,Piperacillin MIC + Peptide,bacterial isolates; S. aureus 18 MRSA,64 mg/L
same,Peptide MIC Alone,bacterial isolates; S. aureus 18 MRSA,32 mg/L
same,Peptide MIC + Piperacillin,bacterial isolates; S. aureus 19 MRSA,0.5 mg/L
same,Piperacillin MIC + Peptide,bacterial isolates; S. aureus 19 MRSA,64 mg/L
same,Peptide MIC Alone,bacterial isolates; S. aureus 19 MRSA,8 mg/L
same,Peptide MIC + Piperacillin,bacterial isolates; S. marcescens 1,1 mg/L
same,Piperacillin MIC + Peptide,bacterial isolates; S. marcescens 1,16 mg/L
same,Peptide MIC Alone,bacterial isolates; S. marcescens 1,>128 mg/L
same,FIC,bacterial isolates; A. calcoaceticus 3,0.50
same,FIC,bacterial isolates; H. influenzae SB1,0.52
same,FIC,bacterial isolates; P. aeruginosa 7,0.50
same,FIC,bacterial isolates; P. aeruginosa 23,0.50
same,FIC,bacterial isolates; S. aureus 18 MRSA,0.50
same,FIC,bacterial isolates; S. aureus 19 MRSA,0.56
same,FIC,bacterial isolates; S. marcescens 1,0.25
same,Peptide MIC + Piperacillin,[1],2 mg/L
same,Peptide MIC Alone,[1],8 mg/L
same,FIC,[1],0.25
same,Peptide MIC + Piperacillin,[2]; A. calcoaceticus 3,32 mg/L
same,Piperacillin MIC + Peptide,[2]; A. calcoaceticus 3,16 mg/L
same,Peptide MIC Alone,[2]; A. calcoaceticus 3,64 mg/L
same,Peptide MIC + Piperacillin,[2]; H. influenzae 1,64 mg/L
same,Piperacillin MIC + Peptide,[2]; H. influenzae 1,16 mg/L
same,Peptide MIC Alone,[2]; H. influenzae 1,>128 mg/L
same,Peptide MIC + Piperacillin,[2]; P. aeruginosa 7,64 mg/L
same,Piperacillin MIC + Peptide,[2]; P. aeruginosa 7,64 mg/L
same,Peptide MIC Alone,[2]; P. aeruginosa 7,>128 mg/L
same,Peptide MIC + Piperacillin,[2]; P. aeruginosa 23,1 mg/L
same,Piperacillin MIC + Peptide,[2]; P. aeruginosa 23,64 mg/L
same,Peptide MIC Alone,[2]; P. aeruginosa 23,>128 mg/L
same,Peptide MIC + Piperacillin,[2]; S. maltophilia 2,16 mg/L
same,Piperacillin MIC + Peptide,[2]; S. maltophilia 2,16 mg/L
same,Peptide MIC Alone,[2]; S. maltophilia 2,64 mg/L
same,Peptide MIC + Piperacillin,[2]; S. marcescens 1,1 mg/L
same,Piperacillin MIC + Peptide,[2]; S. marcescens 1,16 mg/L
same,Peptide MIC Alone,[2]; S. marcescens 1,>128 mg/L
same,FIC,[2]; A. calcoaceticus 3,0.63
same,FIC,[2]; H. influenzae 1,0.75
same,FIC,[2]; P. aeruginosa 7,0.50
same,FIC,[2]; P. aeruginosa 23,0.50
same,FIC,[2]; S. maltophilia 2,0.75
same,FIC,[2]; S. marcescens 1,0.25

# Source: patent US20020035061A1, “COMPOSITIONS AND METHODS FOR TREATING INFECTIONS USING CATIONIC PEPTIDES ALONE OR IN COMBINATION WITH ANTIBIOTICS” (priority 1996, published 2002)
